This note sets out measurements from patent publication US8952024B2, “Herbicidal pyrimidone derivatives” (E I du Pont de Nemours and Company, priority 2009, dated 2015).

The subject of the first assay is nightshade (eastern black nightshade, Solanum ptycanthum). Briefly: Test B pre-/postemergence plant response. It counts as in vivo. Conditions: 250 g ai/ha, Preemergence, 0 to 100 scale. The method, boiled down:
(§1)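 Visual ratings on a 0–100 scale (100 = complete control) were made versus untreated controls 13–15 days after treatment in a greenhouse. Compounds in surfactant-containing non-phytotoxic solvent were applied preemergence to seeds in loam–sand blend or postemergence to 1- to 4-leaf plants (2–18 cm).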
Turning to “3-cyclohexyl-5-[(2-hydroxy-6-oxo-1-cyclohexen-1-yl)carbonyl]-2-phenyl-4(3H)-pyrimidinone [Compound 128]”, the “Plant response rating, Nightshade” value is listed as 100.
Still for that read-out and setting: as for `Cc1ccccc1-n1c(-c2ccccc2)ncc(C(=O)C2=C(O)CCCC2=O)c1=O` [Compound 12], the figure is 100; as for `O=C1CCCC(O)=C1C(=O)c1cnc(-c2ccccc2)n(-c2ccccc2F)c1=O` [Compound 26], 100; as for `Cc1cc(C)cc(-n2c(-c3ccccc3)ncc(C(=O)C3=C(O)CCCC3=O)c2=O)c1` [Compound 33], 100.

The same assay, now with this note: Preemergence, 31 g ai/ha; scale 0 to 100 (0 no effect, 100 complete control).
With “3-cyclohexyl-5-[(2-hydroxy-6-oxo-1-cyclohexen-1-yl)carbonyl]-2-phenyl-4(3H)-pyrimidinone [Compound 128]”, the “Plant response rating, Nightshade” value turned out to be 85.
As for `Cc1ccccc1-n1c(-c2ccccc2)ncc(C(=O)C2=C(O)CCCC2=O)c1=O` [Compound 12], the “Plant response rating, Nightshade” value is 100.
Still for that read-out and setting: under `O=C1CCCC(O)=C1C(=O)c1cnc(-c2ccccc2)n(-c2ccccc2F)c1=O` [Compound 26] stands 85; under `Cc1cc(C)cc(-n2c(-c3ccccc3)ncc(C(=O)C3=C(O)CCCC3=O)c2=O)c1` [Compound 33], 80.

The assay is the same for the next values; noted with them: Preemergence, 62 g ai/ha; scale 0 to 100 (0 no effect, 100 complete control).
In the case of “3-cyclohexyl-5-[(2-hydroxy-6-oxo-1-cyclohexen-1-yl)carbonyl]-2-phenyl-4(3H)-pyrimidinone [Compound 128]”, the “Plant response rating, Nightshade” value was found to be 100.
Same read-out and setting: under `Cc1ccccc1-n1c(-c2ccccc2)ncc(C(=O)C2=C(O)CCCC2=O)c1=O` [Compound 12] stands 100; under `O=C1CCCC(O)=C1C(=O)c1cnc(-c2ccccc2)n(-c2ccccc2F)c1=O` [Compound 26], 100.
Still for that read-out and setting: under `Cc1cc(C)cc(-n2c(-c3ccccc3)ncc(C(=O)C3=C(O)CCCC3=O)c2=O)c1` [Compound 33] stands 100.

The same assay, now with this note: Preemergence, 125 g ai/ha; 0 to 100 scale.
Turning to “3-cyclohexyl-5-[(2-hydroxy-6-oxo-1-cyclohexen-1-yl)carbonyl]-2-phenyl-4(3H)-pyrimidinone [Compound 128]”, the “Nightshade plant response rating” value was found to be 100.
On the same count and under the same terms, as for `Cc1ccccc1-n1c(-c2ccccc2)ncc(C(=O)C2=C(O)CCCC2=O)c1=O` [Compound 12], the figure is 100; as for `O=C1CCCC(O)=C1C(=O)c1cnc(-c2ccccc2)n(-c2ccccc2F)c1=O` [Compound 26], 100; as for `Cc1cc(C)cc(-n2c(-c3ccccc3)ncc(C(=O)C3=C(O)CCCC3=O)c2=O)c1` [Compound 33], 100.

The test system of the next assay is galium (catchweed bedstraw, Galium aparine). Briefly: Test B pre-/postemergence plant response. It counts as in vivo. Particulars: 250 g ai/ha, Preemergence, 0 to 100 scale. The method, boiled down: as §1
As for “3-cyclohexyl-5-[(2-hydroxy-6-oxo-1-cyclohexen-1-yl)carbonyl]-2-phenyl-4(3H)-pyrimidinone [Compound 128]”, the “Plant response rating, Galium” value came to 75.
Regarding `Cc1ccccc1-n1c(-c2ccccc2)ncc(C(=O)C2=C(O)CCCC2=O)c1=O` [Compound 12], the “Plant response rating, Galium” value is 95.
On the same count and under the same terms, as for `O=C1CCCC(O)=C1C(=O)c1cnc(-c2ccccc2)n(-c2ccccc2F)c1=O` [Compound 26], the figure is 98.
On the same count and under the same terms, under `Cc1cc(C)cc(-n2c(-c3ccccc3)ncc(C(=O)C3=C(O)CCCC3=O)c2=O)c1` [Compound 33] stands 90.

The same assay, now with this note: Preemergence, 31 g ai/ha; scale 0 to 100 (0 no effect, 100 complete control).
On to “3-cyclohexyl-5-[(2-hydroxy-6-oxo-1-cyclohexen-1-yl)carbonyl]-2-phenyl-4(3H)-pyrimidinone [Compound 128]”, for which the “Plant response rating, Galium” value is reported as 5.
The same measure, in the same setting: as for `Cc1ccccc1-n1c(-c2ccccc2)ncc(C(=O)C2=C(O)CCCC2=O)c1=O` [Compound 12], the figure is 0; as for `O=C1CCCC(O)=C1C(=O)c1cnc(-c2ccccc2)n(-c2ccccc2F)c1=O` [Compound 26], 0; as for `Cc1cc(C)cc(-n2c(-c3ccccc3)ncc(C(=O)C3=C(O)CCCC3=O)c2=O)c1` [Compound 33], 0.

Still in this assay, the particulars now being: Preemergence, 62 g ai/ha; scale 0 to 100 (0 no effect, 100 complete control).
“3-cyclohexyl-5-[(2-hydroxy-6-oxo-1-cyclohexen-1-yl)carbonyl]-2-phenyl-4(3H)-pyrimidinone [Compound 128]”: the “Plant response rating, Galium” value is 50.
Still for that read-out and setting: under `Cc1ccccc1-n1c(-c2ccccc2)ncc(C(=O)C2=C(O)CCCC2=O)c1=O` [Compound 12] stands 50; under `O=C1CCCC(O)=C1C(=O)c1cnc(-c2ccccc2)n(-c2ccccc2F)c1=O` [Compound 26], 50; under `Cc1cc(C)cc(-n2c(-c3ccccc3)ncc(C(=O)C3=C(O)CCCC3=O)c2=O)c1` [Compound 33], 10.

Still in this assay, the particulars now being: Preemergence, 125 g ai/ha; 0 to 100 scale.
With “3-cyclohexyl-5-[(2-hydroxy-6-oxo-1-cyclohexen-1-yl)carbonyl]-2-phenyl-4(3H)-pyrimidinone [Compound 128]”, the “Galium plant response rating” value is recorded as 50.
On the same count and under the same terms, under `Cc1ccccc1-n1c(-c2ccccc2)ncc(C(=O)C2=C(O)CCCC2=O)c1=O` [Compound 12] stands 90.
On the same count and under the same terms, as for `O=C1CCCC(O)=C1C(=O)c1cnc(-c2ccccc2)n(-c2ccccc2F)c1=O` [Compound 26], the figure is 90; as for `Cc1cc(C)cc(-n2c(-c3ccccc3)ncc(C(=O)C3=C(O)CCCC3=O)c2=O)c1` [Compound 33], 50.

In a further assay the test system is sunflower (common oilseed sunflower, Helianthus annuus). As to the kind of experiment: Test B pre-/postemergence plant response. It counts as in vivo. Particulars: 250 g ai/ha, Preemergence, 0 to 100 scale. The method, boiled down: as §1
“3-cyclohexyl-5-[(2-hydroxy-6-oxo-1-cyclohexen-1-yl)carbonyl]-2-phenyl-4(3H)-pyrimidinone [Compound 128]”: the “Plant response rating, Sunflower” value was determined as 98.
As to `Cc1ccccc1-n1c(-c2ccccc2)ncc(C(=O)C2=C(O)CCCC2=O)c1=O` [Compound 12], the “Plant response rating, Sunflower” value is on record as 100.
Still for that read-out and setting: under `O=C1CCCC(O)=C1C(=O)c1cnc(-c2ccccc2)n(-c2ccccc2F)c1=O` [Compound 26] stands 95; under `Cc1cc(C)cc(-n2c(-c3ccccc3)ncc(C(=O)C3=C(O)CCCC3=O)c2=O)c1` [Compound 33], 90.

Still in this assay, the particulars now being: Preemergence, 31 g ai/ha; scale 0 to 100 (0 no effect, 100 complete control).
As for “3-cyclohexyl-5-[(2-hydroxy-6-oxo-1-cyclohexen-1-yl)carbonyl]-2-phenyl-4(3H)-pyrimidinone [Compound 128]”, the “Plant response rating, Sunflower” value was 75.
For `Cc1ccccc1-n1c(-c2ccccc2)ncc(C(=O)C2=C(O)CCCC2=O)c1=O` [Compound 12], the “Plant response rating, Sunflower” value is given as 95.
The same measure, in the same setting: under `O=C1CCCC(O)=C1C(=O)c1cnc(-c2ccccc2)n(-c2ccccc2F)c1=O` [Compound 26] stands 60; under `Cc1cc(C)cc(-n2c(-c3ccccc3)ncc(C(=O)C3=C(O)CCCC3=O)c2=O)c1` [Compound 33], 65.

Still in this assay, the particulars now being: Preemergence, 62 g ai/ha; scale 0 to 100 (0 no effect, 100 complete control).
Regarding “3-cyclohexyl-5-[(2-hydroxy-6-oxo-1-cyclohexen-1-yl)carbonyl]-2-phenyl-4(3H)-pyrimidinone [Compound 128]”, the “Plant response rating, Sunflower” value came out at 85.
Take `Cc1ccccc1-n1c(-c2ccccc2)ncc(C(=O)C2=C(O)CCCC2=O)c1=O` [Compound 12]: the “Plant response rating, Sunflower” value is given as 98.
The same measure, in the same setting: as for `O=C1CCCC(O)=C1C(=O)c1cnc(-c2ccccc2)n(-c2ccccc2F)c1=O` [Compound 26], the figure is 90.
On the same count and under the same terms, under `Cc1cc(C)cc(-n2c(-c3ccccc3)ncc(C(=O)C3=C(O)CCCC3=O)c2=O)c1` [Compound 33] stands 75.

The same assay, now with this note: Preemergence, 125 g ai/ha; 0 to 100 scale.
Turning to “3-cyclohexyl-5-[(2-hydroxy-6-oxo-1-cyclohexen-1-yl)carbonyl]-2-phenyl-4(3H)-pyrimidinone [Compound 128]”, the “Sunflower plant response rating” value came to 95.
On the same count and under the same terms, as for `Cc1ccccc1-n1c(-c2ccccc2)ncc(C(=O)C2=C(O)CCCC2=O)c1=O` [Compound 12], the figure is 98.
The same measure, in the same setting: under `O=C1CCCC(O)=C1C(=O)c1cnc(-c2ccccc2)n(-c2ccccc2F)c1=O` [Compound 26] stands 90.
Same read-out and setting: under `Cc1cc(C)cc(-n2c(-c3ccccc3)ncc(C(=O)C3=C(O)CCCC3=O)c2=O)c1` [Compound 33] stands 75.
